Assays:
wt IDH1 [1] = target: T1, wt IDH1 (Homo sapiens, UniProt O75874); test: Non-denaturing MS binding, wt IDH1
T1 construct: made in house; host or cells: Escherichia coli BL21(DE3) pLyS
Experimental: Non-denaturing mass spectra were obtained using a quadrupole time-of-flight mass spectrometer (Synapt HD MS, Waters, Manchester, UK).[44],[45] […] Protein concentrations were measured using a Nanodrop spectrometer (Thermo Scientific NanoDrop One). Compounds were dissolved in MeOH to avoid DMSO interference with mass spectra. IDH1 (20 μL of 50 μM final) and the compound of interest (1–4% (v/v) MeOH) in 200 mM ammonium acetate at pH 7.5 were pipetted into wells of a sample plate of an automated chip-based nano-electrospray ion source (TriVersa Nanomate, Advion, Ithaka, NY, USA). Compounds were serially diluted in buffer and mixed with IDH1 diluted in buffer. The mixture was sprayed through a nozzle in a Nanomate chip at a spray voltage of 1.8–2.0 kV (spray backing gas pressure 0.8–1.0 psi, inlet pressure 3.8 mbar). […] Data collection and analyses used Waters MassLynx software. Mass spectra were calibrated externally using CsI solution. KD values were calculated using eq 2 as reported[46] at each compound concentration and are reported as an average across multiple concentrations. For inhibitors with a binding stoichiometry of two inhibitors/IDH dimer, the inhibitor-bound protein peak intensity used was a sum of first and second inhibitor-bound protein peak intensities. Data for the IDH1 dimer m/z = 20^+ charge state are shown. For clarity, only 2× NADPH bound protein peaks are annotated.

IDH1 R132H [2] = target: T2, IDH1 R132H (Homo sapiens, UniProt O75874, R132H); test: Ligand-observed 1H NMR (CPMG-edited, 700 MHz) binding, IDH1 R132H; details: line broadening, 10 μM inhibitor, 50 mM tris-D11-HCl pH 7.5
T2 construct: made in house; host or cells: Escherichia coli BL21(DE3) pLyS
Experimental: (§1) Additional solvent presaturation was applied for 2 s. Samples contained 160 μL of 10 μM compound (0.2% DMSO) in 50 mM tris-D11-HCl, pH 7.5 in 90% H2O/10% D2O (v/v). […] 200 or 400 scans per IDH concentration were recorded, and signals corresponding to the compound were integrated and processed using TopSpin 3.6.1 software.

IDH1 R132H [3] = target: T2, IDH1 R132H; test: Circular dichroism (CD) melting temperature, IDH1 R132H; type: binding; details: inhibitor 42 μM, IDH 4.2 μM (0.2 mg/mL); read-out: Δ Tm/°C by CD IDH1 R132H
Experimental: CD spectra were acquired using a Chirascan CD spectrometer (Applied Photophysics) with a Peltier temperature-control cell holder. Experiments were carried out in a 0.1 cm path length quartz cuvette at 20 °C. […] Spectra were averaged (n = 3) and smoothed (window size = 7) using the Savitzky–Golay filter. The mean residue ellipticity (MRE) was calculated according to the formula [drawing 1] where θ is the degree of ellipticity, N is the number of amino acids, c is the concentration (mol/L), and l is the path length (cm).
Measurements were conducted in 2 °C increments. The melting temperature was calculated using a Boltzmann sigmoidal model in GraphPad Prism v5.04.

wt IDH1 [4] = target: T1, wt IDH1; test: Ligand-observed 1H NMR (CPMG-edited, 700 MHz) binding, wt IDH1; details: line broadening, 10 μM inhibitor, 50 mM tris-D11-HCl pH 7.5
Experimental: as §1

IDH1 R132H [5] = target: T2, IDH1 R132H; test: 1H NMR (700 MHz) reaction monitoring, IDH1 R132H-catalysed conversion of 2OG to 2HG; type: biochemical; details: 1 μM IDH1 R132H, 20 μM compound, over […]; in words
Experimental: Nuclear magnetic resonance (NMR) reaction monitoring was performed at 298 K using a Bruker AVIII 700 MHz NMR spectrometer with a 5 mm inverse triple-carbon-inverse (TCI) cryoprobe in 5 mm tubes (Norell). Data were recorded with a relaxation delay of 2 s and 32 scans, employing a pulse sequence with water suppression (^1H excitation sculpting suppression with perfect-echo using a 2 ms Sinc selective inversion pulse). There is a time delay of 184 s between each acquired spectrum over the time-course experiment. Conversion of 2OG to 2HG catalyzed by IDH1 R132H was monitored using 500 μL of 1 μM IDH, 20 μM compound [0.4% (v/v) DMSO, 10 min pre-incubation with IDH], 10 mM MgCl2, 1.5 mM NADPH, and 1.5 mM 2OG, in 50 mM tris-D11-HCl, pH 7.5 in 90% H2O/10% D2O (v/v). Data were processed with TopSpin 3.6.1 software. Signals corresponding to NADPH, NADP^+, 2OG, and 2HG at each time point over a total of 2 to 3 h were integrated, converted to concentrations, and plotted against time. The difference in concentrations in the linear range of the reaction profile was converted to % residual activity with the DMSO control defined as the 100% residual activity reference.

IDH1 R132H [6] = target: T2, IDH1 R132H; test: Differential scanning fluorimetry (DSF) thermal shift, IDH1 R132H; type: binding; details: largest change in Tm of IDH1 ([…]) with 3-100 μM inhibitor
Experimental: Thermal shift experiments were carried out using Sypro Orange and a CFX96 Touch Real-Time PCR Detection System (Bio-Rad) machine.[42] […] The standard assay buffer contains 50 mM tris–HCl at pH 7.5. Various concentrations of compounds (1% DMSO final) were mixed with IDH1 for thermal stabilization studies. […] Bio-Rad CFX Manager was used to determine the melting temperature, Tm.

T1 sequence (O75874 whole entry): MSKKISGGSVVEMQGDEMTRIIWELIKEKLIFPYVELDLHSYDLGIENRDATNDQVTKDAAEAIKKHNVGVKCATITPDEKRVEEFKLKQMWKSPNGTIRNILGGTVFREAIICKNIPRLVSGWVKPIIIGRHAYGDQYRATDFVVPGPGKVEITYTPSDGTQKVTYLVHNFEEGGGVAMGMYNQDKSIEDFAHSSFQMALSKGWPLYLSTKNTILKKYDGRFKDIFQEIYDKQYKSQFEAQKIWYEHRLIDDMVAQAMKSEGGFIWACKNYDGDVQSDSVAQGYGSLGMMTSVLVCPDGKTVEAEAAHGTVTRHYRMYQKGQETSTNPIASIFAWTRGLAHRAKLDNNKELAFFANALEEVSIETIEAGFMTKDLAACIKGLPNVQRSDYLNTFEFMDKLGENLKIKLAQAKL
T2 sequence (O75874 whole entry R132H): as the sequence (O75874 whole entry) above, with R132H counted along it

stoichiometry, inhibitors per IDH1 dimer, wt IDH1 (wt IDH1 [1]; Figure S7a): 1 | Kd (wt IDH1 [1]; IDH 50 μM, 200 mM ammonium acetate pH 7.5): 608 µM | Kd (IDH1 R132H [2]): 8.6 µM | ΔTm at 42 µM (IDH1 R132H [3]): 7.7 °C | Kd (wt IDH1 [4]): 9.1 µM | inhibition of IDH1 R132H catalysed conversion of 2OG to 2HG monitored by 1H NMR (IDH1 R132H [5]): weaker inhibition | Δ Tm/°C by DSF IDH1 R132H (IDH1 R132H [6]): 6.0 °C
Compound: Cc1ccccc1C(C(=O)NC1CCCCC1)N(C(=O)Cn1ccnc1C)c1cccc(F)c1 (stereo not shown) [AGI-5198]
